In the supplement of paper PMC10307832:

Tests used:
Experiment in all cases: relative viability (nuclei count vs DMSO), 5 days (fraction); higher = more cells survive
Seliciclib = compound: CC[C@H](CO)Nc1nc(NCc2ccccc2)c2ncn(C(C)C)c2n1 [Seliciclib]
Summary of the method: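 Viability was read as treated-well nuclei divided by vehicle-well nuclei, using the median across plates. Lung cancer cell lines in 1536-well plates were kept overnight at 37 °C, pinned with five √10-spaced library-drug doses, and after 5 days were Hoechst-stained, imaged at 4× and counted in MetaXpress. Plates passed only with control CV below 25% and at least one doubling.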

Seliciclib + Phenformin = compound: CC[C@H](CO)Nc1nc(NCc2ccccc2)c2ncn(C(C)C)c2n1 [Seliciclib] + N=C(N)NC(=N)NCCc1ccccc1 [Phenformin] (partner 250 µM)
Summary of the method: (§1)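 Lung cancer cell lines in 1536-well plates were dosed by pin tool the day after seeding, either with one drug alone or with a fixed anchor-drug dose plus five library-drug doses (not always all listed) in √10 steps. After 5 days, cells were fixed and their nuclei stained in one step (final 0.05% Triton X-100, 1% formaldehyde, 1 ug/ml Hoechst), then counted on 4× images. Relative viability is the nuclei count in treated wells divided by that in vehicle wells. Values are medians of duplicate plates.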

Seliciclib + Olaparib = compound: CC[C@H](CO)Nc1nc(NCc2ccccc2)c2ncn(C(C)C)c2n1 [Seliciclib] + O=C(c1cc(Cc2n[nH]c(=O)c3ccccc23)ccc1F)N1CCN(C(=O)C2CC2)CC1 [Olaparib] (partner 8 µM)
Summary of the method: as §1

Seliciclib + Trametinib = compound: CC[C@H](CO)Nc1nc(NCc2ccccc2)c2ncn(C(C)C)c2n1 [Seliciclib] + CC(=O)Nc1cccc(-n2c(=O)n(C3CC3)c(=O)c3c(Nc4ccc(I)cc4F)n(C)c(=O)c(C)c32)c1 [Trametinib] (partner 0.02 µM)
Summary of the method: as §1

| Cell Line | relative viability (Seliciclib; 0.08 µM) | relative viability (Seliciclib; 0.253 µM) | relative viability (Seliciclib; 0.8 µM) | relative viability (Seliciclib; 2.53 µM) | relative viability (Seliciclib; 8 µM) | relative viability (Seliciclib + Phenformin; first compound 0.08 µM) | relative viability (Seliciclib + Phenformin; first compound 0.253 µM) | relative viability (Seliciclib + Phenformin; first compound 0.8 µM) | relative viability (Seliciclib + Phenformin; first compound 2.53 µM) | relative viability (Seliciclib + Phenformin; first compound 8 µM) | relative viability (Seliciclib + Olaparib; first compound 0.253 µM) | relative viability (Seliciclib + Olaparib; first compound 0.8 µM) | relative viability (Seliciclib + Olaparib; first compound 2.53 µM) | relative viability (Seliciclib + Olaparib; first compound 8 µM) | relative viability (Seliciclib + Trametinib; first compound 0.253 µM) | relative viability (Seliciclib + Trametinib; first compound 0.8 µM) | relative viability (Seliciclib + Trametinib; first compound 2.53 µM) | relative viability (Seliciclib + Trametinib; first compound 8 µM) | relative viability (Seliciclib + Olaparib; first compound 0.08 µM) | relative viability (Seliciclib + Trametinib; first compound 0.08 µM) |
| --- | --- | --- | --- | --- | --- | --- | --- | --- | --- | --- | --- | --- | --- | --- | --- | --- | --- | --- | --- | --- |
| LOU-NH91 | 0.789 | 0.916 | 0.919 | 0.85 | 0.723 | 0.609 | 0.666 | 0.671 | 0.589 | 0.552 | 0.93 | 0.891 | 0.925 | 0.782 | 0.702 | 0.786 | 0.745 | 0.752 |  |  |
| NCI-H1650 | 0.926 | 1.1 | 0.95 | 0.824 | 0.663 | 0.436 | 0.525 | 0.462 | 0.424 | 0.264 | 0.804 | 0.754 | 0.666 | 0.756 | 0.69 | 0.471 | 0.433 | 0.422 | 0.576 | 0.572 |
| NCI-H3122 | 0.994 | 0.947 | 0.883 | 0.983 | 0.894 | 0.374 | 0.439 | 0.368 | 0.384 | 0.353 | 0.589 | 0.62 | 0.697 | 0.615 | 0.136 | 0.234 | 0.211 | 0.221 | 0.632 | 0.225 |
| PC-3 [JPC-3] | 1.03 | 1.08 | 0.994 | 0.928 | 0.913 | 0.477 | 0.459 | 0.453 | 0.49 | 0.433 | 1.25 | 1.06 | 1.1 | 0.978 | 0.861 | 0.721 | 0.577 | 0.528 | 1.05 | 0.754 |
| NCI-H1651 | 1.01 | 0.974 | 0.958 | 0.895 | 0.906 | 0.339 | 0.366 | 0.317 | 0.277 | 0.249 | 0.182 | 0.201 | 0.188 | 0.169 | 0.783 | 0.796 | 0.793 | 0.796 | 0.195 | 0.732 |
| NCI-H2087 | 1.03 | 1.08 | 0.956 | 0.836 | 0.791 | 0.537 | 0.495 | 0.411 | 0.41 | 0.385 | 0.616 | 0.38 | 0.577 | 0.514 | 0.203 | 0.217 | 0.145 | 0.196 | 0.597 | 0.202 |
